Data taken from PMC8989888, “Development of optimized drug-like small molecule inhibitors of the SARS-CoV-2 3CL protease for treatment of COVID-19” (Nature Communications, 2022).
“And” between values parts separate entries of the source, which are not always exact repeats. Equal entries are not always repeated.

Key:
SARS-CoV-2 3CL protease [1] = biological target: T1, SARS-CoV-2 3CL protease (Severe acute respiratory syndrome coronavirus 2, UniProt P0DTD1); test: biochemical; details: for % SARS-CoV-2 3CL activity / IC50: 20 nM protease; for % SARS-CoV-2 3CL activity / Normalized SARS-CoV-2 3CL protease activity: replicates; for IC50: read-out: SARS-CoV-2 3CLpro IC50; for Normalized SARS-CoV-2 3CL protease activity: 0.2 µM protease with 50 µM tested compound
SARS-CoV-2 3CL protease [2] = biological target: T1, SARS-CoV-2 3CL protease; test: cell-based

Row | SMILES | % SARS-CoV-2 3CL activity (SARS-CoV-2 3CL protease [1]; log10[nM] 0.19382) | % SARS-CoV-2 3CL activity (SARS-CoV-2 3CL protease [1]; log10[nM] 0.49485) | % SARS-CoV-2 3CL activity (SARS-CoV-2 3CL protease [1]; log10[nM] 0.79588) | % SARS-CoV-2 3CL activity (SARS-CoV-2 3CL protease [1]; log10[nM] 1.09691) | % SARS-CoV-2 3CL activity (SARS-CoV-2 3CL protease [1]; log10[nM] 1.39794) | % SARS-CoV-2 3CL activity (SARS-CoV-2 3CL protease [1]; log10[nM] 1.69897) | % SARS-CoV-2 3CL activity (SARS-CoV-2 3CL protease [1]; log10[nM] 2) | % SARS-CoV-2 3CL activity (SARS-CoV-2 3CL protease [1]; log10[nM] 2.30103) | % SARS-CoV-2 3CL activity (SARS-CoV-2 3CL protease [1]; log10[nM] 2.60206) | % SARS-CoV-2 3CL activity (SARS-CoV-2 3CL protease [1]; log10[nM] 2.90309) | % SARS-CoV-2 3CL activity (SARS-CoV-2 3CL protease [1]; log10[nM] -0.10721) | % SARS-CoV-2 3CL activity (SARS-CoV-2 3CL protease [1]; log10[nM] -0.40824) | IC50 (SARS-CoV-2 3CL protease [1]) | Normalized SARS-CoV-2 3CL protease activity (SARS-CoV-2 3CL protease [1]) | Absorbance (crystal violet), SARS-CoV-2 3CLpro (SARS-CoV-2 3CL protease [2])
1 | Cc1ncc(C(=O)Oc2cncc(Br)c2)s1 [Z43] | 81.5961% and 71.2676% | 59.9348% and 65.0704% | 59.9348% and 45.6338% | 45.6026% and 45.2113% | 33.0619% and 25.9155% | 9.772% and 20% | -2.443% and 0.9859% | -12.7036% and 7.042% | -11.2378% and 5.775% | 0% | 77.6873% and 77.6056% | 100% | 14 nM | 0.007869 and 0.001311 and 0.005246 | 0.1361 and 0.1268
2 | N#CCc1cccc(C(=O)Oc2cncc(Cl)c2)c1 [Z50] |  |  |  |  |  |  |  |  |  |  |  |  |  | 0.05574 and 0.08721 and 0.4348 | 0.1475 and 0.1394
3 | O=C(Oc1cncc(Br)c1)c1cc2c([nH]c1=O)CCCC2 [Z61] |  |  |  |  |  |  |  |  |  |  |  |  |  | 0.4525 and 0.1738 and 0.3423 | 0.1155 and 0.1264
4 | CCn1nc(C)c(C(=O)Oc2cncc(Cl)c2)c1Cl [Z65] |  |  |  |  |  |  |  |  |  |  |  |  |  | 0.223 and 0.2216 and 0.2302 | 0.1475 and 0.1384
5 | Cc1ncsc1C(=O)Oc1cncc(Cl)c1 [Z91] | 84.3886% and 89.3518% | 71.2882% and 83.5648% | 67.1397% and 68.9815% | 60.4804% and 65.625% | 57.3144% and 59.9537% | 31.5502% and 53.125% | 18.6681% and 32.7546% | 6.9869% and 23.0324% | 2.62% and 4.745% | 0% | 87.0087% and 88.8889% | 100% | 31 nM | 0.02131 and 0.02295 and 0.01967 | 0.1428 and 0.134
6 | CN(C)S(=O)(=O)c1ccc(C(=O)Oc2cc(Cl)c[nH]c2=O)cc1 [Z97] |  |  |  |  |  |  |  |  |  |  |  |  |  | 0.9508 and 0.9056 and 0.9639 | 0.1516 and 0.1477
